Results published in patent US9926282B2, “Phthalazinones and isoquinolinones as rock inhibitors” (BRISTOL-MYERS SQUIBB COMPANY, priority 2013, dated 2018).

What was measured:
[1] = molecular target: ROCK1 (Homo sapiens (Human), UniProt Q13464); assay: ROCK assay (LABCHIP peptide phosphorylation), ROCK1; assay type: biochemical; settings: 5 μM ATP, 1.5 μM peptide substrate; read-out: ROCK1 IC50
[2] = molecular target: ROCK2 (Homo sapiens (Human), UniProt O75116); assay: ROCK assay (LABCHIP peptide phosphorylation), ROCK2; assay type: biochemical; settings: 5 μM ATP, 1.5 μM peptide substrate
[3] = test system: neointimal formation; settings: rats; cited from earlier work
[4] = test system: congestive heart failure in Dahl salt-sensitive rats; settings: cited from earlier work
[5] = test system: rat stroke model; settings: cited from earlier work

Sequence of ROCK2 (O75116 whole entry, species assumed): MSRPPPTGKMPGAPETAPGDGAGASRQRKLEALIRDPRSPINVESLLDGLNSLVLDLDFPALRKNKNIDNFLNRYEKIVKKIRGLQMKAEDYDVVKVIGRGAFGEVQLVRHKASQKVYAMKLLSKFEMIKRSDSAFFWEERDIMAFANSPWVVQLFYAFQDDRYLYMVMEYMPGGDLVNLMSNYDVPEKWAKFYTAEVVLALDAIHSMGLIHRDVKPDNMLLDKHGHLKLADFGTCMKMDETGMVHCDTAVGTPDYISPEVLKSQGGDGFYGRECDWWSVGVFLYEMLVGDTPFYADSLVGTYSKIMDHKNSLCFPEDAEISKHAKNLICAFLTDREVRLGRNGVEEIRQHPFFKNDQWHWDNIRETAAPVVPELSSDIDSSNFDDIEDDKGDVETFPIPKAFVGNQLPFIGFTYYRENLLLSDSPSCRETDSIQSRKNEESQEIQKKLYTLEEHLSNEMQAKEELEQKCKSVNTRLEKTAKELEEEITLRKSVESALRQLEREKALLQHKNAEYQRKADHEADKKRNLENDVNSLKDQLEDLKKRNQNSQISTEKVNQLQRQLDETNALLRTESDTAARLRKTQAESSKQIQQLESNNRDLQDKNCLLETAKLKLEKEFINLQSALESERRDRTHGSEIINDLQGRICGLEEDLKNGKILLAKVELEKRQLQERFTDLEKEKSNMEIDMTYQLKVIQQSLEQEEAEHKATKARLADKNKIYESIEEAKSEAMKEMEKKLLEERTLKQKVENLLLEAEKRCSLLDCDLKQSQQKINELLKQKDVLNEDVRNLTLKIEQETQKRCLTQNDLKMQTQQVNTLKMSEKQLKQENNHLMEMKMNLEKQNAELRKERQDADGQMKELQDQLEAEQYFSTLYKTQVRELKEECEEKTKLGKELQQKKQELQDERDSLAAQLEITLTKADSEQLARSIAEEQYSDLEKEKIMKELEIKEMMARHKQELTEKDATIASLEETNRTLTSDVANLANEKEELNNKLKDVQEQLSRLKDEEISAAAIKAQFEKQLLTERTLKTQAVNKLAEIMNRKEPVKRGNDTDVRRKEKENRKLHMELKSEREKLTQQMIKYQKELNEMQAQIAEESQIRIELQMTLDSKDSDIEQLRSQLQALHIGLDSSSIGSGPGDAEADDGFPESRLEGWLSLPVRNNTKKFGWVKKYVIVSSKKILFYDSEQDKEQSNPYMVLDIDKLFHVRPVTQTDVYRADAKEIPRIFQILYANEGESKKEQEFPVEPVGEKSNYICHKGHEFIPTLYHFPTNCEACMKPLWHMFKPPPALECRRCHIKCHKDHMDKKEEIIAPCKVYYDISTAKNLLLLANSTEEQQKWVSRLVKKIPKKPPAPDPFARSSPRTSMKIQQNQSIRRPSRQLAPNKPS
Sequence of ROCK1 (Q13464 whole entry, species assumed): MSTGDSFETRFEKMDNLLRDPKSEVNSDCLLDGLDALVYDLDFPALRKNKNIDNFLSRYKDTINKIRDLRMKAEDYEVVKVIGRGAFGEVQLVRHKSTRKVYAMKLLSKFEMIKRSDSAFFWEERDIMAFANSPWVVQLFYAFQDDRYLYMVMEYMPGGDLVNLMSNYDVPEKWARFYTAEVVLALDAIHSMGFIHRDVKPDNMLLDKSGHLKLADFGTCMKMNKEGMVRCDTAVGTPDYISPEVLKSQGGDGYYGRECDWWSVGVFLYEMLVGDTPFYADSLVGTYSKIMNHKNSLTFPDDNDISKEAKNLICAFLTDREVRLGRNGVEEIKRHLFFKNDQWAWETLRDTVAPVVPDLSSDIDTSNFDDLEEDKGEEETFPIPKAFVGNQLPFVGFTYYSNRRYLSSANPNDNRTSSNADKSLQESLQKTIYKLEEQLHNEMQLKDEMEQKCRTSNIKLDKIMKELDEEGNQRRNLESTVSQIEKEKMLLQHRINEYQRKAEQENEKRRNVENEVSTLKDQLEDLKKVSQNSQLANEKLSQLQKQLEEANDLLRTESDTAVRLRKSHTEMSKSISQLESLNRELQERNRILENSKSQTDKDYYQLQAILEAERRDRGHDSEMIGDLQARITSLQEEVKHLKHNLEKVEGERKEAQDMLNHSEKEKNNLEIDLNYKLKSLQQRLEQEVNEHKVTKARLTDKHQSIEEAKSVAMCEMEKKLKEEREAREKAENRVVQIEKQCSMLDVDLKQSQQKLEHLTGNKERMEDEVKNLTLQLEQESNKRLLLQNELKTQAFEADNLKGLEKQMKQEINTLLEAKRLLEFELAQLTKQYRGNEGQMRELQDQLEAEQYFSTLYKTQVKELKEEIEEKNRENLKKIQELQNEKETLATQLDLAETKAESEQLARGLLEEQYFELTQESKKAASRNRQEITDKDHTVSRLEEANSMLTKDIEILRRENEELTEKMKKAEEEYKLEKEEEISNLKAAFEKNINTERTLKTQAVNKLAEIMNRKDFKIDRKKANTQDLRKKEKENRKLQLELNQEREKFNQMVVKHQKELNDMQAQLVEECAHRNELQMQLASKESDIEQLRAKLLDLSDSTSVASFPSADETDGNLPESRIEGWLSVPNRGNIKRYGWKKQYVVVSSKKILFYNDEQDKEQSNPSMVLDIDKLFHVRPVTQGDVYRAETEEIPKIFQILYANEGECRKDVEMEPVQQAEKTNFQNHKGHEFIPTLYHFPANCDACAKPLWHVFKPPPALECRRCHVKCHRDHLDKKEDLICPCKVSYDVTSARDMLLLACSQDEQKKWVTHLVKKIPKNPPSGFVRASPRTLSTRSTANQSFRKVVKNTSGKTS

Compound | IC50 [1] | IC50 [2] | neointimal formation [3] | ventricular hypertrophy, fibrosis and function [4] | infarct size and neurologic deficit [5]
Cc1cc(NC(=O)c2cnn(-c3ccccc3)c2C)ccc1-c1n[nH]c(=O)c2ccccc12 [Example 394, 5-Methyl-N-(3-methyl-4-(4-oxo-3,4-dihydrophthalazin-1-yl)phenyl)-1-phenyl-1H-pyrazole-4-carboxamide] | 101 to 1000 nM | 0.1 to 100 nM |  |  | 
Cc1cc(NC(=O)c2cc(C(C)(C)C)n(C)n2)ccc1-c1n[nH]c(=O)c2ccccc12 [Example 395, 5-(tert-Butyl)-1-methyl-N-(3-methyl-4-(4-oxo-3,4-dihydrophthalazin-1-yl)phenyl)-1H-pyrazole-3-carboxamide] | 0.1 to 100 nM | 0.1 to 100 nM |  |  | 
O=C(Nc1ccc(-c2n[nH]c(=O)c3ccccc23)cc1)c1cnn(C2CCNC2)c1 (centres unmarked) [Example 397, N-(4-(4-Oxo-3,4-dihydrophthalazin-1-yl)phenyl)-1-(pyrrolidin-3-yl)-1H-pyrazole-4-carboxamide] | 1000 to 50000 nM | 101 to 1000 nM |  |  | 
O=C(Nc1ccc(-c2n[nH]c(=O)c3ccccc23)cc1)c1cnn(CCC(F)(F)F)c1 [Example 398, N-(4-(4-Oxo-3,4-dihydrophthalazin-1-yl)phenyl)-1-(3,3,3-trifluoropropyl)-1H-pyrazole-4-carboxamide] | 101 to 1000 nM | 0.1 to 100 nM |  |  | 
O=C(Nc1ccc(-c2n[nH]c(=O)c3ccccc23)cc1)c1cnn(CCCN2CCCC2)c1 [Example 399, N-(4-(4-Oxo-3,4-dihydrophthalazin-1-yl)phenyl)-1-(3-(pyrrolidin-1-yl)propyl)-1H-pyrazole-4-carboxamide] | 101 to 1000 nM | 101 to 1000 nM |  |  | 
C[C@@H](N)[C@H]1CC[C@H](C(=O)Nc2ccncc2)CC1 [Example Y-27632] |  |  | inhibited neointimal formation | improve ventricular hypertrophy, fibrosis and function | 
O=S(=O)(c1cccc2cnccc12)N1CCCNCC1 [fasudil] |  |  |  |  | reduce both the infarct size and neurologic deficit
N-[4-(4-oxo-3,4- dihydrophthalazin-1- yl)phenyl]-1-[3- ylmethyl]-1H-indazole- 3-carboxamide [Example 170] | 0.1 to 100 nM | 0.1 to 100 nM |  |  | 
N-[4-(4-oxo-3,4- dihydrophthalazin-1- yl)phenyl]pyrazolo[1,5- a]pyrimidine-2- carboxamide [Example 102] | 0.1 to 100 nM | 0.1 to 100 nM |  |  | 

Continued, in another order:

IC50 [1] | IC50 [2] | Compound | neointimal formation [3] | ventricular hypertrophy, fibrosis and function [4] | infarct size and neurologic deficit [5]
0.1 to 100 nM | 0.1 to 100 nM | Cc1c(C(=O)Nc2ccc(-c3n[nH]c(=O)c4ccccc34)cc2)nnn1-c1ccccc1 [Example 400, 5-Methyl-N-(4-(4-oxo-3,4-dihydrophthalazin-1-yl)phenyl)-1-phenyl-1H-1,2,3-triazole-4-carboxamide] |  |  | 
0.1 to 100 nM | 0.1 to 100 nM | COc1ccc(-n2nnc(C(=O)Nc3ccc(-c4n[nH]c(=O)c5ccccc45)cc3)c2C)cc1 [Example 401, 1-(4-Methoxyphenyl)-5-methyl-N-(4-(4-oxo-3,4-dihydrophthalazin-1-yl)phenyl)-1H-1,2,3-triazole-4-carboxamide] |  |  | 
101 to 1000 nM | 0.1 to 100 nM | COc1ccc(-n2nnc(C)c2C(=O)Nc2ccc(-c3n[nH]c(=O)c4ccccc34)cc2)cc1 [Example 402, 1-(4-Methoxyphenyl)-4-methyl-N-(4-(4-oxo-3,4-dihydrophthalazin-1-yl)phenyl)-1H-1,2,3-triazole-5-carboxamide] |  |  | 
0.1 to 100 nM | 0.1 to 100 nM | Cn1nc(C(=O)Nc2ccc(-c3n[nH]c(=O)c4ccccc34)cc2)cc1OC(F)F [Example 403, 5-(Difluoromethoxy)-1-methyl-N-(4-(4-oxo-3,4-dihydrophthalazin-1-yl)phenyl)-1H-pyrazole-3-carboxamide] |  |  | 
0.1 to 100 nM | 0.1 to 100 nM | COc1cccc(-n2cc(C(=O)Nc3ccc(-c4n[nH]c(=O)c5ccccc45)cc3)nn2)c1 [Example 404, 1-(3-Methoxyphenyl)-N-(4-(4-oxo-3,4-dihydrophthalazin-1-yl)phenyl)-1H-1,2,3-triazole-4-carboxamide] |  |  | 
0.1 to 100 nM | 0.1 to 100 nM | COc1ccccc1-n1nnc(C(=O)Nc2ccc(-c3n[nH]c(=O)c4ccccc34)cc2)c1C [Example 405, 1-(2-Methoxyphenyl)-5-methyl-N-(4-(4-oxo-3,4-dihydrophthalazin-1-yl)phenyl)-1H-1,2,3-triazole-4-carboxamide] |  |  | 
0.1 to 100 nM | 0.1 to 100 nM | COc1ccccc1-n1cc(C(=O)Nc2ccc(-c3n[nH]c(=O)c4ccccc34)cc2)nn1 [Example 406, 1-(2-Methoxyphenyl)-N-(4-(4-oxo-3,4-dihydrophthalazin-1-yl)phenyl)-1H-1,2,3-triazole-4-carboxamide] |  |  | 
0.1 to 100 nM | 0.1 to 100 nM | Cn1nc(C2CC2)cc1C(=O)Nc1ccc(-c2n[nH]c(=O)c3ccccc23)cc1 [Example 407, 3-Cyclopropyl-1-methyl-N-(4-(4-oxo-3,4-dihydrophthalazin-1-yl)phenyl)-1H-pyrazole-5-carboxamide] |  |  | 
101 to 1000 nM | 0.1 to 100 nM | Cn1nc(C(F)(F)F)cc1C(=O)Nc1ccc(-c2n[nH]c(=O)c3ccccc23)cc1 [Example 408, 1-Methyl-N-(4-(4-oxo-3,4-dihydrophthalazin-1-yl)phenyl)-3-(trifluoromethyl)-1H-pyrazole-5-carboxamide] |  |  | 
